Source: PMC10648406, “Pulicaria incisa (Lam.) DC. as a Potential Source of Antioxidant, Antibacterial, and Anti-Enzymatic Bioactive Molecules: Phytochemical Constituents, In Vitro and In Silico Pharmacological Analysis” (Molecules, 2023)
≈ marks a conversion by molar mass, not a printed value.

Legend:
DPPH assay = conditions: 45 min, 515 nm
Method: The antiradical activity of the stable 1,1-diphenyl-2-picrylhydrazyl radical (DPPH) was measured using the protocol of Xiang and coworkers with slight modifications. […] To produce final concentrations ranging from 31.25 to 1000 µg/mL, aliquots of extracts were dissolved in methanol. In a straight-sided cuvette, an aliquot of methanol solution containing different concentrations of either methanolic or aqueous extracts was added to a DPPH solution (60 μM) to a final volume of 1 mL. As a control, an identical quantity of DPPH solution was applied to the cuvette, and methanol alone was used as the blank. After 45 min, the absorbance at 515 nm was measured with a Multiskan GO spectrophotometer (Thermo Fisher Scientific, Vantaa, Finland).
The standard was 6-hydroxy 2,5,7,8-tetramethylchroman-2-carboxylic acid (Trolox, Sigma-Aldrich, Milan, Italy).

A. baumannii = assay: MIC, resazurin microtitre method; type: cell-based; conditions: Acinetobacter baumannii, 24 h, 35 °C, read-out: Minimal inhibitory concentration
Method: (§1) To ensure sterility, the extracts and DMSO underwent ultrafiltration before their use in the study. The minimum inhibitory concentration (MIC) of both aqueous and methanolic extracts was determined using a modified version of the resazurin method developed by Sarker and Nahar. A resazurin solution was prepared by dissolving 270 mg of resazurin in 40 mL of sterilized deionized water. In 96-well microtiter plates, the first row received 100 μL of samples in DMSO (1:10 v/v), while all other wells received 50 μL of Luria–Bertani broth or normal sterile solution. Serial dilutions of the extracts were performed in descending concentrations. To each well, 10 μL of the resazurin indicator solution was added. […] The plates were sealed with parafilm to prevent dehydration. A column of the plate contained the broad-spectrum antibiotic tetracycline, which was previously suspended in DMSO and served as a positive control. The negative control consisted of Luria–Bertani broth containing resazurin and bacteria without any samples. The plates were incubated at 37 °C (35 °C for A. baumannii) for 24 h. Visual observation was used to assess any color changes. If the solution changed from dark purple to pink or colorless, it was recorded as a positive result. The MIC value was determined as the lowest concentration of extracts that could prevent the color change from dark purple to pink.

E. coli = assay: MIC, resazurin microtitre method; type: cell-based; conditions: Escherichia coli, 24 h, read-out: Minimal inhibitory concentration
Method: as §1

L. monocytogenes = assay: MIC, resazurin microtitre method; type: cell-based; conditions: Listeria monocytogenes, 24 h, 37 °C, read-out: Minimal inhibitory concentration
Method: as §1

P. aeruginosa = assay: MIC, resazurin microtitre method; type: cell-based; conditions: Pseudomonas aeruginosa, 24 h, 37 °C, read-out: Minimal inhibitory concentration
Method: as §1

S. aureus = assay: MIC, resazurin microtitre method; type: cell-based; conditions: Staphylococcus aureus, 24 h, read-out: Minimal inhibitory concentration
Method: as §1

Structure (SMILES) | DPPH (IC50) (DPPH assay) | MIC (A. baumannii) | MIC (E. coli) | MIC (L. monocytogenes) | MIC (P. aeruginosa) | MIC (S. aureus)
Cc1c(C)c2c(c(C)c1O)CCC(C)(C(=O)O)O2 (stereo not drawn) [Trolox, 6-hydroxy 2,5,7,8-tetramethylchroman-2-carboxylic acid] | 3.65 ± 0.01 µg/mL |  |  |  |  | 
CN(C)[C@@H]1C(O)=C(C(N)=O)C(=O)[C@@]2(O)C(O)=C3C(=O)c4c(O)cccc4[C@@](C)(O)[C@H]3C[C@@H]12 [Tetracycline] |  | 25 ± 2 µg/mL (≈ 56.3 µM) | 25 ± 2 µg/mL (≈ 56.3 µM) | 32 ± 1 µg/mL (≈ 72 µM) | 28 ± 1 µg/mL (≈ 63 µM) | 28 ± 1 µg/mL (≈ 63 µM)
